Read-outs that look alike come from different tables or passages of the source.
Key:
[1] = target: His tagged PTPN2 (TC45) protein (Homo sapiens (Human), UniProt P17706); test: PTPN2 Mobility Shift Assay (MSA); assay type: biochemical
Experimental: Example III-1: Mobility Shift Assay (MSA) Used to Determine Potency of PTPN2 Inhibitors
Compound activity was determined using in house His tagged PTPN2 (TC45) protein (SEQ ID NO: 1) in an in vitro enzymatic reaction. The enzymatic assay used to determine activity was a mobility shift assay using a LabChip EZ Reader by Caliper Life Sciences. The enzymatic reaction was carried out in assay buffer (50 mM HEPES pH 7.5, 1 mM EGTA, 10 mM EDTA, 0.01% Tween® 20, and 2 mM DTT). The compounds were dispensed on a white 384 well ProxiPlate™ (PerkinElmer Catalog #6008289) plate using the Labcyte Echo at varying concentrations (12 point, 1:3 dilution). The enzyme (at 0.5 nM) was incubated with compound for 10 minutes at room temperature. Thereafter, the substrate (phosphorylated insulin receptor probe sequence: ((OG488)-(NH—CH2—CH2—O—CH2—CH2—O—CH2—CO)-T-R-D-I—(PY)-E-T-D-Y—Y—R—K—K—NH2) (SEQ ID NO: 2) was added at 2 μM to the plates and incubated for another 10 minutes at room temperature. Finally, a quench solution (water and 4-bromo-3-(2-oxo-2-propoxyethoxy)-5-(3-{[1-(phenylmethanesulfonyl)piperidin-4-yl]amino}phenyl)thiophene-2-carboxylic acid) was added to the plates, which were then run on the EZ Reader (excitation 488 nm, emission 530 nm) to measure % conversion (the amount of phosphorylated substrate which was de-phosphorylated by PTPN2). […] The % inhibition was then used to calculate the IC50 values.

[2] = target: His tagged full-length PTPN1 protein (Homo sapiens (Human), UniProt P18031); test: PTPN1 Mobility Shift Assay (MSA); assay type: biochemical; conditions: enzyme 0.5 nM, substrate 2 μM
Experimental: Example III-2: Mobility Shift Assay (MSA) Used to Determine Potency of PTPN1 Inhibitors
Compound activity was determined using in house His tagged full-length PTPN1 protein (SEQ ID NO: 3) in an in vitro enzymatic reaction. The enzymatic assay used to determine activity is a mobility shift assay using a LabChip EZ Reader by Caliper Life Sciences. The enzymatic reaction was carried out in assay buffer (50 mM HEPES pH 7.5, 1 mM EGTA, 10 mM EDTA, 0.01% Tween® 20, and 2 mM DTT). The compounds were dispensed on a white 384 well ProxiPlate™ (PerkinElmer Cat ^#6008289) plate using a Labcyte Echo® liquid handler at varying concentrations (12 point, 1:3 dilution). The enzyme (at 0.5 nM) was incubated with compound for 10 minutes at room temperature. Thereafter, the substrate (phosphorylated insulin receptor probe sequence: ((OG488)-(NH—CH2—CH2—O—CH2—CH2—O—CH2—CO)-T-R-D-I—(PY)-E-T-D-Y—Y—R—K—K—NH2) (SEQ ID NO: 2) was added at 2 μM to the plates and incubated for another 10 minutes at room temperature. Finally, a quench solution (water and 4-bromo-3-(2-oxo-2-propoxyethoxy)-5-(3-{[1-(phenylmethanesulfonyl)piperidin-4-yl]amino}phenyl)thiophene-2-carboxylic acid) was added to the plates, which were then run on the EZ Reader (excitation 488 nm, emission 530 nm) to measure % conversion (the amount of phosphorylated substrate which was de-phosphorylated by PTPN1). […] The % inhibition was then used to calculate the IC50 values.

[3] = test system: IFNγ-induced STAT1 phosphorylation (pSTAT1) in B16F10 cells; test: B16F10 Phospho-STAT1 HTRF proximal pharmacodynamic (PD) assay; assay type: cell-based, murine; conditions: for EC50: B16-F10, B16F10 cells
Experimental: Example III-3: B16F10 (Murine Melanoma Cells) Phospho-STAT1 HTRF Proximal Pharmacodynamic (PD) Assay
B16F10 cells were grown and maintained in high glucose DMEM (Gibco, Catalog^#11965-092, Dun Laoghaire Co Dublin) supplemented with 10% fetal bovine serum (Gibco, Catalog^#10082-139, Dun Laoghaire Co Dublin). The cells were pelleted and resuspended in high glucose DMEM without phenol red (Gibco, Catalog^#11054-020, Dun Laoghaire Co Dublin), supplemented with 10% fetal bovine serum and plated in a 384 well Corning plate (product^#3765, Corning, NY) at 11,000 cells per well in a volume of 20 μL. The cells were dosed with the compounds of interest using an Echo Liquid Handler (Beckman Coulter, Brea, CA) at 50 μM top dose with 3-fold dilutions down to 0.002679 μM for a 10-point dose response. The plate was incubated for 3 hours at 37° C. and subsequently treated with recombinant mouse IFNγ (R&D Systems, Catalog^#485-MI, Minneapolis, MN; 100 nM final concentration) for 10 minutes at 37° C. to induce STAT1 phosphorylation followed by 3.3 μM staurosporine treatment for 1 hour at 37° C. to terminate phosphorylation. Media was then aspirated and 20 μL of 1× lysis buffer/blocking reagent (Cisbio Phospho-STAT1 kit, part^# 63ADK026PEH, Bedford, MA) was added. The plate was placed on a plate shaker for 30 minutes at room temperature, sealed, and stored at −80° C. until needed. To thaw, the plate was placed on shaker at room temperature until completely thawed while the antibody master mix was made (1:40 Phospho-STAT1 Eu Cryptate antibody, 1:40 Phospho-STAT d2 antibody, with the detection buffer; Cisbio Phospho-STAT1 kit, part^#63ADK026PEH, Bedford, MA). The antibody master mix was then dispensed at 4 μL per well into a 384 ProxiPlate Plus (PerkinElmer, part^#6008289, Waltham, MA) and 16 μL of lysate was added from the Corning plate to the Proxiplate using a VIAFLO 384 (INTEGRA). The plate was incubated for 3 hours at room temperature and read on an EnVision® (Perkin Elmer) plate reader with laser excitation at 335 nm and emission at 665 nm. Dotmatics Studies (Bishop's Stortford, UK) was utilized to generate all dose-response curves and calculate EC50s and are shown in Table 2.

[4] = 3 hours compound, 100 nM mouse IFNγ 10 minutes, read-out: B16F10 IFNγ Induced pSTAT1 EC50

His tagged PTPN2 (TC45) protein, sequence (P17706 other isoform, or with tags, fused parts or gaps): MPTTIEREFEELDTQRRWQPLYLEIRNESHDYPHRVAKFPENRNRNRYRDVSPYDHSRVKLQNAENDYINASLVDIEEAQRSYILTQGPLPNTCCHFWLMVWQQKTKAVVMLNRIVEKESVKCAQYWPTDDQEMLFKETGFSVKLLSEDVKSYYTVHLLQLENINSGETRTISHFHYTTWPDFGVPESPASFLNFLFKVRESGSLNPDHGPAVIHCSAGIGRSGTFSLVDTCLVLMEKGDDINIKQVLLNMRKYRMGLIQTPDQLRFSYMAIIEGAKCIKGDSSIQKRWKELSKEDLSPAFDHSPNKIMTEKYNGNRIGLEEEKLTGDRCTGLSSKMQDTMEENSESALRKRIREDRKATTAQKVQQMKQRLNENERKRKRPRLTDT
His tagged full-length PTPN1 protein, sequence (P18031 whole entry): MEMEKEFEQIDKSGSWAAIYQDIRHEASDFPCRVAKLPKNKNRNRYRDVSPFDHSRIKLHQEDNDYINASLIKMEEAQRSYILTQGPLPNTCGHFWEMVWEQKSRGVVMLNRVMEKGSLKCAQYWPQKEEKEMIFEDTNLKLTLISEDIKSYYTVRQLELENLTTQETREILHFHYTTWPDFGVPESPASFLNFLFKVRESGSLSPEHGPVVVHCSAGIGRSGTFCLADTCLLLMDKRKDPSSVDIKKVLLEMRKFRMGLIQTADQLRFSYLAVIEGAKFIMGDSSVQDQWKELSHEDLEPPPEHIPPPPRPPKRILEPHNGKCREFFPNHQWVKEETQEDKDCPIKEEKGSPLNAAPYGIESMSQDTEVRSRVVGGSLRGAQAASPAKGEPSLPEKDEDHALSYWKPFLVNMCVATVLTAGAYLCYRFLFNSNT

Row | SMILES | IC50 [2] [nM] | EC50 [3, 4] [nM] | EC50 ([3]; Mus musculus, Table 3, dihydrobenzofuran or indoline compound (X = O or NH), read-out: pSTAT1 EC50) [nM] | IC50 ([1]; enzyme 0.5 nM, substrate 2 μM) [nM] | IC50 ([1]; Table 3, dihydrobenzofuran or indoline compound (X = O or NH)) [nM] | Dihydrobenzofuran or Indoline x-fold>potency biochemical ([1]; x-fold versus corresponding chromane comparator, PTPN2 MSA) | Dihydrobenzofuran or Indoline x-fold>potency cellular ([3]; x-fold versus corresponding chromane comparator, B16F10 pSTAT1)
1 | CCC(C)CNC[C@H]1Cc2c(cc(O)c(N3CC(=O)NS3(=O)=O)c2F)O1 (stereo partly drawn) [Compound 116, 5-[(2R)-4-fluoro-6-hydroxy-2-{[(2-methylbutyl)amino]methyl}-2,3-dihydro-1-benzofuran-5-yl]-1λ^6,2,5-thiadiazolidine-1,1,3-trione] | 10 to 100 | 736 |  | 10 to 100 |  |  | 
2 | CC(C)CNC[C@H]1Cc2c(cc(O)c(N3CC(=O)NS3(=O)=O)c2F)N1 [Compound 133, 5-[(2R)-4-fluoro-6-hydroxy-2-{[(2-methylpropyl)amino]methyl}-2,3-dihydro-1H-indol-5-yl]-1λ^6,2,5-thiadiazolidine-1,1,3-trione] | 10 to 100 | 1240 |  | 10 to 100 |  |  | 
3 | O=C1CN(c2c(O)cc3c(c2F)C[C@H](CN(CC2CC2)CC2CC2)O3)S(=O)(=O)N1 [Compound 118, 5-[(2R)-2-{[bis(cyclopropylmethyl)amino]methyl}-4-fluoro-6-hydroxy-2,3-dihydro-1-benzofuran-5-yl]-1λ^6,2,5-thiadiazolidine-1,1,3-trione] | 10 to 100 | 20100 |  | 10 to 100 |  |  | 
4 | O=C1CN(c2c(O)cc3c(c2F)C[C@H](CNCCC2CCCC2)O3)S(=O)(=O)N1 [Compound 103, 5-[(2R)-2-{[(2-cyclopentylethyl)amino]methyl}-4-fluoro-6-hydroxy-2,3-dihydro-1-benzofuran-5-yl]-1λ^6,2,5-thiadiazolidine-1,1,3-trione] | 10 to 100 | 1870 |  | < 10 |  |  | 
5 | O=C1CN(c2c(O)cc3c(c2F)C[C@H](CNCCC(F)(F)F)N3)S(=O)(=O)N1 [Compound 141, 5-[(2R)-4-fluoro-6-hydroxy-2-{[(3,3,3-trifluoropropyl)amino]methyl}-2,3-dihydro-1H-indol-5-yl]-1λ^6,2,5-thiadiazolidine-1,1,3-trione] | 10 to 100 | 704 |  | 10 to 100 |  |  | 
6 | CCCN(CCC)C[C@H]1Cc2c(cc(O)c(N3CC(=O)NS3(=O)=O)c2F)O1 [Compound 110, 5-{(2R)-2-[(dipropylamino)methyl]-4-fluoro-6-hydroxy-2,3-dihydro-1-benzofuran-5-yl}-1λ^6,2,5-thiadiazolidine-1,1,3-trione] | 10 to 100 | 18000 |  | 10 to 100 |  |  | 
7 | CC(C)C1CC(CNC[C@H]2Cc3c(cc(O)c(N4CC(=O)NS4(=O)=O)c3F)N2)C1 (stereo partly drawn) [Compound 154, 5-{(2R)-4-fluoro-6-hydroxy-2-[({[3-(propan-2-yl)cyclobutyl]methyl}amino)methyl]-2,3-dihydro-1H-indol-5-yl}-1λ^6,2,5-thiadiazolidine-1,1,3-trione] | 10 to 100 | 1880 |  | < 10 |  |  | 
8 | O=C1CN(c2c(O)cc3c(c2F)C[C@H](CNCC2C4CCCC42)O3)S(=O)(=O)N1 (mixture of isomers) [Compound 126, 5-{(2R)-2-[({[(1RS,5SR)-bicyclo[3.1.0]hexan-6-yl]methyl}amino)methyl]-4-fluoro-6-hydroxy-2,3-dihydro-1-benzofuran-5-yl}-1λ^6,2,5-thiadiazolidine-1,1,3-trione] | 10 to 100 | 3670 | 3670 | < 10 | 6.06 | 5.3 | >13.6
9 | O=C1CN(c2c(O)cc3c(c2F)CC(CNCCC2COC2)N3)S(=O)(=O)N1 (stereo not shown) [Compound 144, 5-[4-fluoro-6-hydroxy-2-({[2-(oxetan-3-yl)ethyl]amino}methyl)-2,3-dihydro-1H-indol-5-yl]-1λ^6,2,5-thiadiazolidine-1,1,3-trione] | > 100 | 7180 |  | 10 to 100 |  |  | 

Continued, in another order:

Row | IC50 [2] [nM] | EC50 [3, 4] [nM] | EC50 ([3]; Mus musculus, Table 3, dihydrobenzofuran or indoline compound (X = O or NH), read-out: pSTAT1 EC50) [nM] | SMILES | IC50 ([1]; enzyme 0.5 nM, substrate 2 μM) [nM] | IC50 ([1]; Table 3, dihydrobenzofuran or indoline compound (X = O or NH)) [nM] | Dihydrobenzofuran or Indoline x-fold>potency biochemical ([1]; x-fold versus corresponding chromane comparator, PTPN2 MSA) | Dihydrobenzofuran or Indoline x-fold>potency cellular ([3]; x-fold versus corresponding chromane comparator, B16F10 pSTAT1)
10 | 10 to 100 | 1970 |  | O=C1CN(c2c(O)cc3c(c2F)CC(CNCCCC(F)F)N3)S(=O)(=O)N1 (stereo not shown) [Compound 145, 5-(2-{[(4,4-difluorobutyl)amino]methyl}-4-fluoro-6-hydroxy-2,3-dihydro-1H-indol-5-yl)-1λ^6,2,5-thiadiazolidine-1,1,3-trione] | 10 to 100 |  |  | 
11 | > 100 | 4690 |  | CC(C)CNC[C@@H]1Cc2c(cc(O)c(N3CC(=O)NS3(=O)=O)c2F)N1 [Compound 132, 5-[(2S)-4-fluoro-6-hydroxy-2-{[(2-methylpropyl)amino]methyl}-2,3-dihydro-1H-indol-5-yl]-1λ^6,2,5-thiadiazolidine-1,1,3-trione] | 10 to 100 |  |  | 
12 | 10 to 100 | 904 |  | O=C1CN(c2c(O)cc3c(c2F)C[C@H](CNCC2CCC2)N3)S(=O)(=O)N1 [Compound 137, 5-[(2R)-2-{[(cyclobutylmethyl)amino]methyl}-4-fluoro-6-hydroxy-2,3-dihydro-1H-indol-5-yl]-1λ^6,2,5-thiadiazolidine-1,1,3-trione] | 10 to 100 |  |  | 
13 | 10 to 100 | 1740 |  | O=C1CN(c2c(O)cc3c(c2F)C[C@H](CNCCC2(CO)CCC2)O3)S(=O)(=O)N1 [Compound 121, 5-{(2R)-4-fluoro-6-hydroxy-2-[({2-[1-(hydroxymethyl)cyclobutyl]ethyl}amino)methyl]-2,3-dihydro-1-benzofuran-5-yl}-1λ^6,2,5-thiadiazolidine-1,1,3-trione] | 10 to 100 |  |  | 
14 | 10 to 100 | 2010 |  | CC(C)(C)CCNC[C@H]1Cc2c(cc(O)c(N3CC(=O)NS3(=O)=O)c2F)N1 [Compound 153, 5-[(2R)-2-{[(3,3-dimethylbutyl)amino]methyl}-4-fluoro-6-hydroxy-2,3-dihydro-1H-indol-5-yl]-1λ^6,2,5-thiadiazolidine-1,1,3-trione] | 10 to 100 |  |  | 
15 | 10 to 100 | 1980 |  | O=C1CN(c2c(O)cc3c(c2F)C[C@H](CNCCC2(CO)CCCC2)O3)S(=O)(=O)N1 [Compound 122, 5-{(2R)-4-fluoro-6-hydroxy-2-[({2-[1-(hydroxymethyl)cyclopentyl]ethyl}amino)methyl]-2,3-dihydro-1-benzofuran-5-yl}-1λ^6,2,5-thiadiazolidine-1,1,3-trione] | 10 to 100 |  |  | 
